Experiments:
in vivo = test: in vivo; parameters: species or system New Zealand Red/White F1 Cross rabbits; conditions: female, New Zealand Red/White F1 Cross, rabbit
Description: In this experiment, female pigmented rabbits were assigned to receive one of two formulations of lifitegrast (#1 and #2) for 5 consecutive days. Each treatment group consisted of 25 rabbits. Animals received a single topical ocular dose of lifitegrast in each eye b.i.d.
(except on study day 5), approximately 12 hours apart (±1 hour), at a target dose level of 1.75 mg/eye/dose (35 μL/eye/dose). On study day 5, animals were dosed in the morning only. Treatment groups 1 and 2 were dosed on separate days. The in-life portion of the study was conducted in May 2014. This study adhered to the ARVO Statement for the Use of Animals in Ophthalmic and Vision Research and all procedures in the study were in compliance with the Animal Welfare Act Regulations (9 CFR 3).
Fifty female New Zealand Red/White F1 Cross rabbits from Covance Research Products (Denver, Pa., USA) were used in the study. The animals were acclimated to study conditions for 13 days before dose administration. At dosing, the animals weighed 3177 to 4271 g and were at least 6 months of age. Animals were housed individually, in suspended stainless steel cages, with food and water ad libitum, and under a 12-hour light/12-hour darkness cycle throughout the study. Animals were not randomized, but were assigned to animal numbers based on overall health and the results of predose ophthalmic examinations. Ophthalmic examinations were performed by a board-certified veterinary ophthalmologist once at baseline (pre dose) using a Kowa hand-held slit-lamp biomicroscope and an indirect ophthalmoscope with a condensing lens to ensure the study animals were healthy and had no ocular findings pre-treatment.
Formulations for the study that would be representative of the clinical material (confirmed by analytical data) were prepared at Covance Laboratories Inc. In each formulation, lifitegrast was added to dose vehicle while stirring, and pH adjusted with hydrochloric acid (HCl) and/or sodium hydroxide (NaOH). The formulation was stirred until a clear solution was obtained, filtered with a 0.22 μm filter (Millipore® Millex-GV, 0.22 μm, Durapore® PVDF) and stored at approximately 5° C. Analysis of the formulations was performed by Almac Sciences, Souderton, Pa., USA, and concentrations were measured as 49.4 and 49.3 mg/mL for formulations #1 and #2, respectively.
Formulation #1: dose vehicle consisted of sterile water for injection, sodium chloride, sodium phosphate dibasic anhydrous, sodium bicarbonate, ethylenediaminetetraacetic acid (EDTA), and sodium thiosulfate pentahydrate, adjusted to a pH of 7.30 with HCl. After addition of lifitegrast (50 mg/mL), the pH was adjusted to 6.90. […]

[1] = literature; cited from earlier work

Cmax (in vivo): ≤ 36 ng/g
Tmax (in vivo): 15 to 60 min
half-life (in vivo; plasma t1/2): 51 min
half-life (in vivo; t1/2): ~120 min
SMILES: CS(=O)(=O)c1cccc(C[C@H](NC(=O)c2c(Cl)cc3c(c2Cl)CCN(C(=O)c2ccc4ccoc4c2)C3)C(=O)O)c1 [lifitegrast, Lifitegrast]
safety profile in clinical trials [1]: generally well tolerated

Reference: patent publication US20200009130A1, “OCULAR DISTRIBUTION AND PHARMACOKINETICS OF LIFITEGRAST FORMULATIONS” (SARcode Bioscience Inc., priority 2016, published 2020)
